In US20240002375A1, “2-(INDAZOL-5-YL)-6-(PIPERIDIN-4-YL)-1,7-NAPHTHYRIDINE DERIVATIVES AND RELATED COMPOUNDS AS MODULATORS FOR SPLICING NUCLEIC ACIDS AND FOR THE TRE” (REMIX THERAPEUTICS INC., priority 2020, published 2024):
pIC50: −log10 of the molar value. Where a name gives a salt, the structure may show the parent alone.

How the values were obtained:
Type in all cases: cell-based
Target C CJ mRNA = test: Gene panel canonical junction qPCR splicing assay, Target C; conditions: Table 4, read-out: Target C IC50 (decrease in CJ mRNA levels)
In short: (§1)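 A673 or K562 cells treated with compound; canonical-junction mRNA measured by RT-qPCR with junction-spanning primer/probe sets, normalized to GAPDH, GUSB or PPIA and DMSO (2^−ΔΔCt). IC50 for CJ decrease from 4-parameter logistic fit of percentage response.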

HTT mRNA = test: Splicing assay (RT-qPCR) of HTT mRNA alternative junction (AJ) and canonical junction (CJ); conditions: A673 or K562 cells, 24 hours; for AC50: increase in AJ mRNA, read-out: HTT AJ AC50; for pIC50: decrease in CJ mRNA, read-out: HTT CJ IC50
In short: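 A673 (adherent, 24 h pre-plating) or K562 cells treated 24 h at 37 °C with an 11-point 3-fold dilution series, top 10 uM, DMSO ≤0.25%. Lysates analysed by one-step RT-qPCR for HTT canonical (CJ) and alternative-exon (AJ) junctions, normalised to PPIA (A673) or GAPDH/GUSB (K562).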

HTT CJ mRNA = test: Gene panel canonical junction qPCR splicing assay, HTT; conditions: Table 4, read-out: HTT IC50 (decrease in CJ mRNA levels)
In short: as §1

SMN2 CJ mRNA = test: Gene panel canonical junction qPCR splicing assay, SMN2; conditions: Table 4, read-out: SMN2 IC50 (decrease in CJ mRNA levels)
In short: as §1

Row | Structure (SMILES) | pIC50 (Target C CJ mRNA) | AC50 (HTT mRNA) | pIC50 (HTT CJ mRNA) | pIC50 (SMN2 CJ mRNA) | pIC50 (HTT mRNA)
1 | CN(C(=O)Nc1cn[nH]c1)c1cc2nc(N3CCNCC3)ccc2cn1 [Compound 110, 1-methyl-1-[2-(piperazin-1-yl)-1,6-naphthyridin-7-yl]-3-(1H-pyrazol-4-yl)urea] | > 7.00 | > 10000 nM | < 5.00 | < 5.00 | 
2 | CN(c1ccc2nc(-c3cc4cn(C)nc4cc3O)ccc2n1)C1CC(C)(C)NC(C)(C)C1 [Compound 130] | < 5.00 | > 10000 nM | < 5.00 | 6.00 to 7.00 | < 5.00
3 | COc1cc2c(=O)n(C)cnc2cc1-c1ccc2nc(N3CCC(NC(C)(C)C)C3)ccc2n1 (stereo not drawn) [Compound 168, 7-{6-[3-(tert-butylamino)pyrrolidin-1-yl]-1,5-naphthyridin-2-yl}-6-methoxy-3-methylquinazolin-4-one] | < 5.00 | > 10000 nM | < 5.00 | < 5.00 | < 5.00
4 | Cn1cc2cc(-c3ccc4nc(N5CCNCC5)ccc4n3)c(O)cc2n1 [Compound 136] | 6.00 to 7.00 | 1000 to 10000 nM | 5.00 to 6.00 | > 7.00 | 5.00 to 6.00
5 | Cc1nc2cc(O)c(-c3ccc4nc(N5CCC(NC(C)(C)C)C5)ccc4n3)cc2s1 (stereo not drawn) [Compound 190, 6-{6-[3-(tert-butylamino)pyrrolidin-1-yl]-1,5-naphthyridin-2-yl}-2-methyl-1,3-benzothiazol-5-ol; trifluoroacetic acid] | < 5.00 | > 10000 nM | < 5.00 | > 7.00 | < 5.00
6 | COc1cc2nc(C)sc2cc1-c1ccc2nc(N3CCC(NC(C)(C)C)C3)ccc2n1 (stereo not drawn) [Compound 176, N-tert-butyl-1-[6-(5-methoxy-2-methyl-1,3-benzothiazol-6-yl)-1,5-naphthyridin-2-yl]pyrrolidin-3-amine] | 5.00 to 6.00 | 1000 to 10000 nM | 5.00 to 6.00 | 5.00 to 6.00 | 5.00 to 6.00
7 | C[C@H]1C[C@H](c2ccc3nc(-c4cc5cn(C)nc5cc4O)ccc3n2)CCN1 (relative stereo) [Compound 139, 2-methyl-5-[6-[(2S,4R)-2-methylpiperidin-4-yl]-1,5-naphthyridin-2-yl]indazol-6-ol] | 6.00 to 7.00 | < 100 nM | > 7.00 | > 7.00 | > 7.00
8 | CCN[C@H]1CCN(c2ccc3nc(-c4cc5cn(C)nc5cc4O)ccc3n2)C1 [Compound 179] | 6.00 to 7.00 | < 100 nM | > 7.00 | > 7.00 | > 7.00
9 | Cn1cc2cc(-c3ccc4nc(N5CC[C@H](NCC6CC6)C5)ccc4n3)c(O)cc2n1 [Compound 194] | > 7.00 | < 100 nM | > 7.00 | > 7.00 | > 7.00
10 | Cn1cc2cc(-c3ccc4nc(N5CCNC(C)(C)C5)ccc4n3)c(O)cc2n1 [Compound 120, 5-[6-(3,3-dimethylpiperazin-1-yl)-1,5-naphthyridin-2-yl]-2-methylindazol-6-ol] | 5.00 to 6.00 | 1000 to 10000 nM | 5.00 to 6.00 | > 7.00 | 5.00 to 6.00
11 | Cc1nc2cc(O)c(-c3ccc4nc(C5CCNCC5)ccc4n3)cc2o1 [Compound 147, 2-methyl-6-[6-(piperidin-4-yl)-1,5-naphthyridin-2-yl]-1,3-benzoxazol-5-ol] | > 7.00 | < 100 nM | > 7.00 | > 7.00 | > 7.00
12 | Cc1c(O)c(-c2ccc3nc(N4CCC(NC(C)(C)C)C4)ccc3n2)cc2cn(C)nc12 (stereo not drawn) [Compound 191, 5-{6-[3-(tert-butylamino)pyrrolidin-1-yl]-1,5-naphthyridin-2-yl}-2,7-dimethylindazol-6-ol hydrochloride] | < 5.00 | < 100 nM | < 5.00 | < 5.00 | > 7.00
13 | CN1CCCC2(CCN2c2ccc3nc(-c4cc5cn(C)nc5cc4O)ccc3n2)C1 (stereo not drawn) [Compound 192, 2-methyl-5-(6-{6-methyl-1,6-diazaspiro[3.5]nonan-1-yl}-1,5-naphthyridin-2-yl) indazol-6-ol] | < 5.00 | > 10000 nM | < 5.00 | < 5.00 | < 5.00
14 | Cc1c(O)c(-c2ccc3nc(N4CC[C@@H](NC5CC5)C4)ccc3n2)cc2cn(C)nc12 (single isomer, unassigned) [Compound 259] | > 7.00 | < 100 nM | > 7.00 | > 7.00 | > 7.00
15 | Cn1cc2nc(-c3ccc4nc(C5CCNCC5)ccc4n3)ccc2n1 [Compound 199, 2-{2-methylpyrazolo[4,3-b]pyridin-5-yl}-6-(piperidin-4-yl)-1,5-naphthyridine] | 6.00 to 7.00 | 100 to 1000 nM | 6.00 to 7.00 | 6.00 to 7.00 | 6.00 to 7.00
16 | Cc1c(O)c(-c2ccc3nc(N4CC[C@H](NC5(C)CC5)C4)ccc3n2)cc2cn(C)nc12 (single isomer, unassigned) [Compound 226, 2,7-dimethyl-5-{6-[(35)-3-[(1-methylcyclopropyl)amino]pyrrolidin-1-yl]-1,5-naphthyridin-2-yl}indazol-6-ol] | > 7.00 | < 100 nM | > 7.00 | > 7.00 | > 7.00
17 | Cc1nc2cc(O)c(-c3ccc4nc(N5CCC(N)C5)ccc4n3)cc2o1 (stereo not drawn) [Compound 234, 6-[6-(3-aminopyrrolidin-1-yl)-1,5-naphthyridin-2-yl]-2-methyl-1,3-benzoxazol-5-ol] | 6.00 to 7.00 | < 100 nM | 6.00 to 7.00 | > 7.00 | 6.00 to 7.00
18 | Cn1cc2cc(-c3ccc4nc(N5CC[C@H](NCC(F)(F)F)C5)ccc4n3)c(O)cc2n1 [Compound 182, 2-methyl-5-{6-[(3S)-3-[(2,2,2-trifluoroethyl)amino]pyrrolidin-1-yl]-1,5-naphthyridin-2-yl}indazol-6-ol] | < 5.00 | > 10000 nM | 5.00 to 6.00 | 5.00 to 6.00 | 5.00 to 6.00
19 | Cn1cc2cc(-c3ccc4nc(N5CCC56CCCNC6)ccc4n3)c(O)cc2n1 (stereo not drawn) [Compound 163] | < 5.00 | > 10000 nM | < 5.00 | 6.00 to 7.00 | < 5.00
20 | Cn1cc2cc(-c3ccc4nc(N5CC[C@@H](N[C@H]6C[C@H](F)C6)C5)ccc4n3)c(O)cc2n1 [Compound 246] | > 7.00 | < 100 nM | > 7.00 | > 7.00 | > 7.00
21 | Cc1nc2c(F)c(O)c(-c3ccc4nc(N5CC[C@H](NC6CC6)C5)ccc4n3)cc2o1 (single isomer, unassigned) [Compound 254, 6-{6-[3-(cyclopropylamino)pyrrolidin-1-yl]-1,5-naphthyridin-2-yl}-4-fluoro-2-methyl-1,3-benzoxazol-5-ol] | > 7.00 | < 100 nM | > 7.00 | > 7.00 | > 7.00
22 | Cc1nc2c(C)c(O)c(-c3ccc4nc(N5CC[C@@H](NC(C)(C)C)C5)ccc4n3)cc2o1 (single isomer, unassigned) [Compound 215, 6-{6-[3-(tert-butylamino)pyrrolidin-1-yl]-1,5-naphthyridin-2-yl}-2,4-dimethyl-1,3-benzoxazol-5-ol] | > 7.00 | < 100 nM | > 7.00 | > 7.00 | > 7.00
23 | Cn1cc2cc(-c3ccc4nc(N5CC(C)(C)NC(C)(C)C5)ccc4n3)c(O)cc2n1 [Compound 122, 2-methyl-5-[6-(3,3,5,5-tetramethylpiperazin-1-yl)-1,5-naphthyridin-2-yl]indazol-6-ol] | < 5.00 | > 10000 nM | 5.00 to 6.00 | < 5.00 | < 5.00
